Experimental data from patent publication US20060069132A1, “Azolecarboxamide herbicides” (priority 2004, published 2006).
Where two headings read alike, the source gives them in different places.

Key:
corn = test: Test B pre-/postemergence herbicide test; assay type: in vivo, Zea mays; conditions: Zea mays; for plant injury at 125 g/ha: 125 g ai/ha
Procedure, shortened: (§1)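 Herbicidal effect was judged by eye on a 0–100 scale after plants stood 13 to 15 days in the greenhouse following pre- or postemergence treatment with surfactant-containing formulations.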

large crabgrass = test: Test B pre-/postemergence herbicide test; assay type: in vivo, Digitaria sanguinalis; conditions: Digitaria sanguinalis; for pest or weed control at 125 g/ha: 125 g ai/ha; for pest or weed control at 500 g/ha: 500 g ai/ha
Procedure, shortened: as §1

cocklebur = test: Test B pre-/postemergence herbicide test; assay type: in vivo, Xanthium strumarium; conditions: Xanthium strumarium; for pest or weed control at 125 g/ha: 125 g ai/ha; for pest or weed control at 500 g/ha: 500 g ai/ha
Procedure, shortened: (§2)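 Plants compared with untreated controls 13–15 days post-treatment and given a visual 0–100 injury score. Applications: preemergence to seeds; postemergence at 1- to 4-leaf (2–18 cm); paddy species flooded, 2-leaf stage. Vehicle non-phytotoxic, surfactant included.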

pigweed = test: Test B pre-/postemergence herbicide test; assay type: in vivo, Amaranthus retroflexus; conditions: Amaranthus retroflexus, 336 h; for pest or weed control at 125 g/ha: 125 g ai/ha; for pest or weed control at 500 g/ha: 500 g ai/ha
Procedure, shortened: as §1

morningglory = test: Test B pre-/postemergence herbicide test; assay type: in vivo, Ipomoea coccinea; conditions: Ipomoea, 336 h; for pest or weed control at 125 g/ha: 125 g ai/ha; for pest or weed control at 500 g/ha: 500 g ai/ha
Procedure, shortened: as §2

barnyardgrass [1] = test: Test B flooded paddy test; assay type: in vivo, Echinochloa crus-galli; conditions: Echinochloa crus-galli, 336 h, 1000 g ai/ha, visual rating, scale 0 to 100 (0 no effect, 100 complete control), 13 to 15 days, read-out: Barnyardgrass plant response rating
Procedure, shortened: (§3)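 Formulated test chemicals went onto postemergence plants measuring 2 to 18 cm, at one to four leaves. For the paddy assay, species had reached two leaves. Scoring took place 13–15 days later by eye, relative to untreated plants, using 0 for no effect up to 100 for full control.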

rice = test: Test B flooded paddy test; assay type: in vivo, Oryza sativa; conditions: Oryza sativa, 336 h, 1000 g ai/ha, visual rating, scale 0 to 100 (0 no effect, 100 complete control), 13 to 15 days, read-out: Rice plant response rating
Procedure, shortened: (§4)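 Treated at 2-leaf (paddy) or 1–4-leaf, 2–18 cm (postemergence); greenhouse 13–15 d; visual score vs control, 0 none to 100 complete control; dash = not tested.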

barnyardgrass [2] = test: Test B pre-/postemergence herbicide test; assay type: in vivo, Echinochloa crus-galli; conditions: Echinochloa crus-galli; for pest or weed control at 125 g/ha: 125 g ai/ha; for pest or weed control at 500 g/ha: 500 g ai/ha
Procedure, shortened: as §2

giant foxtail = test: Test B pre-/postemergence herbicide test; assay type: in vivo, Setaria faberi; conditions: Setaria faberi, 336 h; for pest or weed control at 125 g/ha: 125 g ai/ha; for pest or weed control at 500 g/ha: 500 g ai/ha
Procedure, shortened: as §1

lambsquarters = test: Test B pre-/postemergence herbicide test; assay type: in vivo, Chenopodium album; conditions: Chenopodium album, 336 h; for pest or weed control at 125 g/ha: 125 g ai/ha; for pest or weed control at 500 g/ha: 500 g ai/ha
Procedure, shortened: as §1

velvetleaf = test: Test B pre-/postemergence herbicide test; assay type: in vivo, Abutilon theophrasti; conditions: Abutilon theophrasti, 336 h; for pest or weed control at 125 g/ha: 125 g ai/ha; for pest or weed control at 500 g/ha: 500 g ai/ha
Procedure, shortened: as §1

Surinam grass = test: Test B pre-/postemergence herbicide test; assay type: in vivo, Urochloa decumbens; conditions: Urochloa decumbens; for pest or weed control at 125 g/ha: 125 g ai/ha; for pest or weed control at 500 g/ha: 500 g ai/ha
Procedure, shortened: as §1

wheat = test: Test B postemergence herbicide test; assay type: in vivo, Triticum aestivum; conditions: Triticum aestivum, post-emergence, 336 h, postemergence, visual rating, scale 0 (no effect) to 100 (complete control), read-out: Wheat plant response rating
Procedure, shortened: as §4

wild oat = test: Test B postemergence herbicide test; assay type: in vivo, Avena fatua; conditions: Avena fatua, post-emergence, 336 h, postemergence, visual rating, scale 0 (no effect) to 100 (complete control), read-out: Oat, Wild plant response rating
Procedure, shortened: as §4

ducksalad = test: Test B flooded paddy test; assay type: in vivo, Heteranthera limosa; conditions: Heteranthera limosa, 336 h, 1000 g ai/ha, visual rating, scale 0 to 100 (0 no effect, 100 complete control), 13 to 15 days, read-out: Ducksalad plant response rating
Procedure, shortened: as §3

[3] = post-emergence, postemergence, visual rating, scale 0 (no effect) to 100 (complete control), read-out: Crabgrass, Large plant response rating
[4] = post-emergence, postemergence, visual rating, scale 0 (no effect) to 100 (complete control), read-out: Cocklebur plant response rating
[5] = post-emergence, postemergence, visual rating, scale 0 (no effect) to 100 (complete control), read-out: Pigweed plant response rating
[6] = post-emergence, postemergence, visual rating, scale 0 (no effect) to 100 (complete control), read-out: Morningglory plant response rating
[7] = post-emergence, postemergence, visual rating, scale 0 (no effect) to 100 (complete control), read-out: Barnyardgrass plant response rating
[8] = post-emergence, postemergence, visual rating, scale 0 (no effect) to 100 (complete control), read-out: Foxtail, Giant plant response rating
[9] = post-emergence, postemergence, visual rating, scale 0 (no effect) to 100 (complete control), read-out: Lambsquarters plant response rating
[10] = post-emergence, postemergence, visual rating, scale 0 (no effect) to 100 (complete control), read-out: Velvetleaf plant response rating
[11] = post-emergence, postemergence, visual rating, scale 0 (no effect) to 100 (complete control), read-out: Surinam Grass plant response rating

## CCNC(=O)c1cccc(NC(=O)c2nn(C(C)(C)C)cc2Br)c1 [Compound 221, 4-bromo-1-(1,1-dimethylethyl)-N-[3-[(ethylamino)carbonyl]phenyl]-1H-pyrazole-3-carboxamide]
corn; post-emergence, postemergence, visual rating, scale 0 (no effect) to 100 (complete control), read-out: Corn plant response rating
  plant injury at 125 g/ha: 10%
corn; post-emergence, postemergence, 500 g ai/ha, visual rating, scale 0 (no effect) to 100 (complete control), read-out: Corn plant response rating
  plant injury at 500 g/ha: 10%
corn; pre-emergence, 0 = no effect, 100 = complete control, read-out: Corn plant response rating (0 to 100 scale)
  plant injury at 125 g/ha: 0%
corn; pre-emergence, 500 g ai/ha, visual rating, 0 = no effect, 100 = complete control
  Corn plant response rating (crop injury, 0 = no effect, 100 = complete kill) at 500 g/ha: 0%
Large crabgrass; [3]
  pest or weed control at 125 g/ha: 0%
  pest or weed control at 500 g/ha: 10%
Large crabgrass; pre-emergence, 0 = no effect, 100 = complete control, read-out: Crabgrass, Large plant response rating (0 to 100 scale)
  pest or weed control at 125 g/ha: 80%
Large crabgrass; pre-emergence, visual rating, 0 = no effect, 100 = complete control, read-out: Plant response rating, Crabgrass, Large
  pest or weed control at 500 g/ha: 100%
cocklebur; [4]
  pest or weed control at 125 g/ha: 0%
  pest or weed control at 500 g/ha: 20%
cocklebur; pre-emergence, 0 = no effect, 100 = complete control, read-out: Cocklebur plant response rating (0 to 100 scale)
  pest or weed control at 125 g/ha: 0%
cocklebur; pre-emergence, visual rating, 0 = no effect, 100 = complete control, read-out: Plant response rating, Cocklebur
  pest or weed control at 500 g/ha: 0%
pigweed; [5]
  pest or weed control at 125 g/ha: 10%
  pest or weed control at 500 g/ha: 20%
pigweed; pre-emergence, 0 = no effect, 100 = complete control, read-out: Pigweed plant response rating (0 to 100 scale)
  pest or weed control at 125 g/ha: 50%
pigweed; pre-emergence, visual rating, 0 = no effect, 100 = complete control, read-out: Plant response rating, Pigweed
  pest or weed control at 500 g/ha: 100%
morningglory; [6]
  pest or weed control at 125 g/ha: 0%
  pest or weed control at 500 g/ha: 0%
morningglory; pre-emergence, 0 = no effect, 100 = complete control, read-out: Morningglory plant response rating (0 to 100 scale)
  pest or weed control at 125 g/ha: 0%
morningglory; pre-emergence, visual rating, 0 = no effect, 100 = complete control, read-out: Plant response rating, Morningglory
  pest or weed control at 500 g/ha: 0%
Barnyardgrass [1]
  pest or weed control at 1000 g/ha: 40%
rice
  plant injury at 1000 g/ha: 20%
Barnyardgrass [2]; [7]
  pest or weed control at 125 g/ha: 0%
  pest or weed control at 500 g/ha: 10%
Barnyardgrass [2]; pre-emergence, 0 = no effect, 100 = complete control, read-out: Barnyardgrass plant response rating (0 to 100 scale)
  pest or weed control at 125 g/ha: 0%
Barnyardgrass [2]; pre-emergence, visual rating, 0 = no effect, 100 = complete control, read-out: Plant response rating, Barnyardgrass
  pest or weed control at 500 g/ha: 90%
Giant foxtail; [8]
  pest or weed control at 125 g/ha: 10%
  pest or weed control at 500 g/ha: 10%
Giant foxtail; pre-emergence, 0 = no effect, 100 = complete control, read-out: Foxtail, Giant plant response rating (0 to 100 scale)
  pest or weed control at 125 g/ha: 0%
Giant foxtail; pre-emergence, visual rating, 0 = no effect, 100 = complete control, read-out: Plant response rating, Foxtail, Giant
  pest or weed control at 500 g/ha: 70%
lambsquarters; [9]
  pest or weed control at 125 g/ha: 0%
  pest or weed control at 500 g/ha: 20%
lambsquarters; pre-emergence, 0 = no effect, 100 = complete control, read-out: Lambsquarters plant response rating (0 to 100 scale)
  pest or weed control at 125 g/ha: 20%
lambsquarters; pre-emergence, visual rating, 0 = no effect, 100 = complete control, read-out: Plant response rating, Lambsquarters
  pest or weed control at 500 g/ha: 100%
velvetleaf; [10]
  pest or weed control at 125 g/ha: 0%
  pest or weed control at 500 g/ha: 0%
velvetleaf; pre-emergence, 0 = no effect, 100 = complete control, read-out: Velvetleaf plant response rating (0 to 100 scale)
  pest or weed control at 125 g/ha: 0%
velvetleaf; pre-emergence, visual rating, 0 = no effect, 100 = complete control, read-out: Plant response rating, Velvetleaf
  pest or weed control at 500 g/ha: 50%
Surinam grass; [11]
  pest or weed control at 125 g/ha: 0%
  pest or weed control at 500 g/ha: 10%
Surinam grass; pre-emergence, 0 = no effect, 100 = complete control, read-out: Surinam Grass plant response rating (0 to 100 scale)
  pest or weed control at 125 g/ha: 0%
Surinam grass; pre-emergence, visual rating, 0 = no effect, 100 = complete control, read-out: Plant response rating, Surinam Grass
  pest or weed control at 500 g/ha: 30%
wheat; 125 g ai/ha
  plant injury at 125 g/ha: 0%
wheat; 500 g ai/ha
  plant injury at 500 g/ha: 10%
Wild oat; 125 g ai/ha
  pest or weed control at 125 g/ha: 0%
Wild oat; 500 g ai/ha
  pest or weed control at 500 g/ha: 10%
ducksalad
  pest or weed control at 1000 g/ha: 50%
